These results are taken from patent US20160060322A1, “RELAXIN-LIKE PEPTIDES AND USES THEREOF” (ANGION BIOMEDICA CORP., priority 2012, published 2016).

The subject of this test is HEK-293T cells. The test can be described thus: cAMP production in parental HEK-293T cells lacking RXFP1. The following applies: parental HEK-293T cells (lack RXFP1); H2R 10 ng/mL. In kind it is cell-based. On the technique in general: cAMP levels reflect the balance of adenylyl cyclase and phosphodiesterase activity.

With “H2R: ~6 kd peptide hormone, 24 amino acid A chain (SEQ ID NO:5) and 29 amino acid B chain (SEQ ID NO:6) linked by disulfide bridges (chain 1 ZLYSALANKCCHVGCTKRSLARFC; chain 2 DSWMEEVIKLCGRELVRAQIAICGMSTWS; disulfide bridges; listed as Homo sapiens)”, the “cAMP response in parental cells” value is given as “no cAMP response”.
